From patent US20120189579A1 (priority 2009, published 2012)
Where a name gives a salt, the structure may show the parent alone.

Target: T1, HCV NS5BΔ21/Gal4-DBD fusion protein (Hepatitis C virus genotype 1b, UniProt Q9WMX2)
T1 construct: The protein was expressed with a 21 amino acid C-terminal deletion to remove transmembrane domain; expressed in transfected cells; host or cells: Huh-7 (transient transfection)
Experiment: 3D-SCREEN assay (NS5B reporter gene assay in Huh-7 cells)
Format: cell-based, HCV genotype 1b
Protocol: Human Hepatoma Huh-7 cell line was maintained in DMEM/HAMF-12 supplemented with 10% SVF, 4 mM glutamine, […] Na pyruvate, 1% penistreptomycine. HCV replicon containing Huh-7 cell lines Huh-9.13 and Luc Neo ET (Reblikon) were maintained in DMEM supplemented with 10% SVF, 2 mM glutamine, and 1×NEAA, 100 U/ml penicillin, and 100 μg/ml streptomycine. Replicon cells were maintained in medium supplemented with 1 mg/ml G418 for replicon Huh-9.13 and 0.5 mg/ml for Luc Neo et replicon unless indicated otherwise. Huh-7 and HCV replicon cell lines were maintained at 37° C. and 5% CO2 in a humidified atmosphere. Cells were dissociated at sub confluence with trypsin EDTA 1×.
cDNA encoding HCV NS5B genotype 1b, was cloned in frame with Gal4-DNA Binding Domain. The protein was expressed with a 21 amino acid C-terminal deletion to remove transmembrane domain. Expression of NS5BΔ21/Gal4 DBD fusion protein was under control of SV40 early promoter. 3D-Sensor peptide was cloned in frame with VP16 activation domain. Expression of 3D-Sensor/VP16 AD fusion protein was under control of CMV promoter. Expression of the firefly luciferase reporter gene was inducible by the [Target protein/conformation sensitive peptide/VP16AD] complex.
It is a single-target, cell based assay. Briefly, expression of a reporter gene depends on the interaction of a short peptide, thereafter named 3D-Sensor, and native conformation of the target protein. Whenever the conformation of the target protein is modified, interaction between 3D-sensor and target protein is disrupted and reporter gene is not expressed anymore. Conformation modifiers are identified by loss of expression of reporter gene. NS5B 3D-Screen platform was generated in Huh-7 cell lines by transient transfection of three expression vectors encoding respectively • (i) HCV NS5BΔ21/Gal4-DBD fusion protein • (ii) the 3D-sensor peptide 14/VP16 fusion protein • (iii) the firefly luciferase reporter gene
Huh-7 cells were dissociated the day before transfection and seeded in T175 flasks at a density of 10^7 cells in 30 ml culture medium. Equimolar ratios of vectors were transfected in cell according to optimized jetPEI transfection protocol (PolyPlus Transfection, Illkirch, France) and 10 μg total DNA/10^6 cells. Transfection was performed for 2 hours at 37° C. and 5% CO2 in a humidified atmosphere. After two hours cells were dissociated and seeded in 96 wells plates at a density of 25,000 cells per well and 90 μl culture medium. 10 μl of compounds to be tested were added 2 hours after seeding. Final concentration of DMSO was 1%. Cells were incubated in the presence of compounds for 24 hours after which expression of firefly luciferase reporter gene was quantified. Briefly, culture medium was removed and cells were lysed by addition of 100 μl of lysis buffer containing 125 mM Tris Phosphate ph 7.8, 10 mM EDTA, 5 mM DTT, 50% glycerol and 5% Triton. Plates were vortexed 10 min at 1300 rpm. Cell lysat was transferred in OpaqueWhite Assay 96 well Flat Bottom plates. 100 μl of luciferin solution 1× were added to each well. Luciferin solution contained 40 mM Tris Phosphate ph 7.8, 0.2 mM EDTA, 67 mM DTT, 2.14 mM MgCl2, 5.4 mM MgSO4, 4.7×10^−4 M luciferin, 5.3×10^−4 M ATP and 2.7×10^−4 M Acetyl co enzyme A. Luminescence was immediately measured with Berthold Microlumat Plus LB 96V luminometer with an integration of 0.5 sec. Inhibition was calculated using the formula: % inhibition=(1−(read/average max))*100. Average max=signal in absence of compound
With `CON=C(C1=C(O)C(=O)N(c2ncc(S(=O)(=O)c3ccc([N+](=O)[O-])cc3)s2)C1c1ccc(C(C)C)cc1)c1ccc(C)cc1` (mixture of isomers) [Example 49, 3-hydroxy-5-(4-isopropyl-phenyl)-4-{[methoxyimino]-p-tolyl-methyl}-1-[5-(4-nitro-benzenesulfonyl)-thiazol-2-yl]-1,5-dihydro-pyrrol-2-one] the EC50 was 4 µM.
Compound `COC(=O)c1ccc(C2C(C(=O)c3ccc(C)cc3)=C(O)C(=O)N2c2ncc(S(=O)(=O)c3ccc([N+](=O)[O-])cc3)s2)cc1` (stereo not shown) [Example 4, 4-{4-hydroxy-3-(4-methyl-benzoyl)-1-[5-(4-nitro-benzenesulfonyl)-thiazol-2-yl]-5-oxo-2,5-dihydro-1H-pyrrol-2-yl}-benzoic acid methyl ester] has an EC50 of 10 µM.
Work on `CC(C)c1ccc(C2C(C(=O)c3ccc(C(C)(C)C)cc3)=C(O)C(=O)N2c2ncc(S(=O)(=O)c3ccc([N+](=O)[O-])cc3)s2)cc1` (stereo not shown) [Example 9, 4-(4-tert-butyl-benzoyl)-3-hydroxy-5-(4-isopropyl-phenyl)-1-[5-(4-nitro-benzenesulfonyl)-thiazol-2-yl]-1,5-dihydro-pyrrol-2-one] yielded an EC50 of 4 µM.
`CC(C)c1ccc(C2C(C(=O)Cc3ccccc3)=C(O)C(=O)N2c2ncc(S(=O)(=O)c3ccc([N+](=O)[O-])cc3)s2)cc1` (stereo not shown) [Example 11, 3-hydroxy-5-(4-isopropyl-phenyl)-1-[5-(4-nitro-benzenesulfonyl)-thiazol-2-yl]-4-phenylacetyl-1,5-dihydro-pyrrol-2-one] showed an EC50 of 12 µM.
In the case of `CC(C)c1ccc(C2C(C(=O)c3ccc(OC(F)(F)F)cc3)=C(O)C(=O)N2c2ncc(S(=O)(=O)c3ccc([N+](=O)[O-])cc3)s2)cc1` (stereo not shown) [Example 13, 3-hydroxy-5-(4-isopropyl-phenyl)-1-[5-(4-nitro-benzenesulfonyl)-thiazol-2-yl]-4-(4-trifluoromethoxy-benzoyl)-1,5-dihydro-pyrrol-2-one], the EC50 is reported as 2 µM.
`COc1ccc(C(=O)C2=C(O)C(=O)N(c3nncs3)C2c2ccc(C(C)(C)C)cc2)cc1` (stereo not shown) [Example 18, 5-(4-tert-butyl-phenyl)-3-hydroxy-4-(4-methoxy-benzoyl)-1-[1,3,4]thiadiazol-2-yl-1,5-dihydro-pyrrol-2-one] showed an EC50 of 7 µM.
For `COc1ccc(C(=O)C2=C(O)C(=O)N(c3nnc(C4CCCCC4)s3)C2c2ccc(C(C)(C)C)cc2)cc1` (stereo not shown) [Example 27], the EC50 was 12 µM.
In the case of `COc1ccc(C(=O)C2=C(O)C(=O)N(c3nnc(-c4ccccc4)s3)C2c2ccc(C(C)(C)C)cc2)cc1` (stereo not shown) [Example 30, 5-(4-tert-butyl-phenyl)-3-hydroxy-4-(4-methoxy-benzoyl)-1-(5-phenyl-[1,3,4]thiadiazol-2-yl)-1,5-dihydro-pyrrol-2-one], the EC50 is reported as 6 µM.
For `CC(C)c1ccc(C2C(C(=O)c3ccc(Cl)cc3)=C(O)C(=O)N2c2ncc(S(=O)(=O)c3ccc([N+](=O)[O-])cc3)s2)cc1` (stereo not shown) [Example 32], the EC50 was 2 µM.
For `CC(C)c1ccc(C2C(Cc3ccccc3)=C(O)C(=O)N2c2ncc(S(=O)(=O)c3ccc([N+](=O)[O-])cc3)s2)cc1` (stereo not shown) [Example 36, 4-benzyl-3-hydroxy-5-(4-isopropyl-phenyl)-1-[5-(4-nitro-benzenesulfonyl)-thiazol-2-yl]-1,5-dihydro-pyrrol-2-one], the EC50 was 5 µM.
With `COc1ccc(C2C(C(=O)c3ccc(Cl)cc3)=C(O)C(=O)N2c2ncc(S(=O)(=O)c3ccc([N+](=O)[O-])cc3)s2)cc1` (stereo not shown) [Example 52] the EC50 was 6 µM.
Compound `COc1ccc(C2C(C(=O)c3ccc(C)cc3)=C(O)C(=O)N2c2ncc(S(=O)(=O)c3ccc([N+](=O)[O-])cc3)s2)cc1` (stereo not shown) [Example 53] has an EC50 of 6 µM.
With `CC(C)(C)c1ccc(C2C(C(=O)c3nccs3)=C(O)C(=O)N2c2ncc(S(=O)(=O)c3ccc([N+](=O)[O-])cc3)s2)cc1` (stereo not shown) [Example 56, 5-(4-tert-butyl-phenyl)-3-hydroxy-1-[5-(4-nitro-benzenesulfonyl)-thiazol-2-yl]-4-(thiazol-2-carbonyl)-1,5-dihydro-pyrrol-2-one] the EC50 was < 10 µM.
Work on `O=C(C1=C(O)C(=O)N(c2ncc(S(=O)(=O)c3ccc([N+](=O)[O-])cc3)s2)C1c1cccc(Br)c1)c1ccc(Cl)cc1` (stereo not shown) [Example 57] yielded an EC50 of 4 µM.
Work on `O=C(C1=C(O)C(=O)N(c2ncc(S(=O)(=O)c3ccc([N+](=O)[O-])cc3)s2)C1c1cccc(Cl)c1)c1ccc(Cl)cc1` (stereo not shown) [Example 59] yielded an EC50 of 14 µM.
With `Cc1ccc(C(=O)C2=C(O)C(=O)N(c3ncc(S(=O)(=O)c4ccc([N+](=O)[O-])cc4)s3)C2c2ccc(Cl)cc2)cc1` (stereo not shown) [Example 60] the EC50 was 13 µM.
`COC(=O)c1sc(N2C(=O)C(O)=C(C(=O)c3ccc(Cl)cc3)C2c2ccc(C(C)(C)C)cc2)nc1C` (stereo not shown) [Example 62] showed an EC50 of 20 µM.
`Cc1ccc(C2C(C(=O)c3ccc(Cl)cc3)=C(O)C(=O)N2c2ncc(S(=O)(=O)c3ccc([N+](=O)[O-])cc3)s2)cc1` (stereo not shown) [Example 66] gave an EC50 of 14 µM.
With `Cc1ccc(C(=O)C2=C(O)C(=O)N(c3ncc(S(=O)(=O)c4ccc([N+](=O)[O-])cc4)s3)C2c2ccc(C)cc2)cc1` (stereo not shown) [Example 124] the EC50 was 7 µM.

Test system: not given
Experiment: not given
Work on `CC(C)(C)c1ccc(C2C(C(=O)CCc3ccccc3)=C(O)C(=O)N2c2ncc(S(=O)(=O)c3ccc([N+](=O)[O-])cc3)s2)cc1` (stereo not shown) yielded a melting point of 172 °C.
`Cc1ccc(C(=O)C2=C(O)C(=O)N(c3ncc(S(=O)(=O)c4ccc([N+](=O)[O-])cc4)s3)C2c2cccnc2)cc1` (stereo not shown) showed a melting point of 211 °C.
For `COC(=O)c1ccc(C2C(C(=O)c3ccc(OC)cc3)=C(O)C(=O)N2c2nnc(C)s2)cc1` (stereo not shown), the melting point was 255 to 257 °C.
Work on `Cc1ccc(C(=O)C2=C(O)C(=O)N(c3ncc(S(=O)(=O)c4ccc([N+](=O)[O-])cc4)s3)C2c2ccc(C(=O)O)cc2)cc1` (stereo not shown) yielded a melting point of 308 to 309 °C.
`COc1ccc(C(=O)C2=C(O)C(=O)N(c3nnc(C)s3)C2c2ccc(C(=O)O)cc2)cc1` (stereo not shown) gave a melting point of 281 °C.
For `COc1ccc(C(=O)C2=C(O)C(=O)N(c3nnc(C)s3)C2c2cccc(C(=O)O)c2)cc1` (stereo not shown), the melting point was 281 °C.
Work on `COc1ccc(C(=O)C2=C(O)C(=O)N(c3nnc(C)s3)C2c2ccc(C#N)cc2)cc1` (stereo not shown) yielded a melting point of 185 °C.
`COc1ccc(C(=O)C2=C(O)C(=O)N(c3nnc(C)s3)C2c2ccc(O)cc2)cc1` (stereo not shown) gave a melting point of 251 °C.
In the case of `COC(=O)c1cccc(C2C(C(=O)c3ccc(OC)cc3)=C(O)C(=O)N2c2nnc(C)s2)c1` (stereo not shown), the melting point is reported as 218 °C.
With `COC1=C(C(=O)c2ccc(C)cc2)C(c2ccc(C(C)C)cc2)N(c2ncc(S(=O)(=O)c3ccc([N+](=O)[O-])cc3)s2)C1=O` (stereo not shown) the melting point was 237 °C.
Compound `COC1=C(C(=O)c2ccc(OC)cc2)C(c2ccc(C(C)(C)C)cc2)N(c2nnc(C)s2)C1=O` (stereo not shown) has a melting point of 235 to 237 °C.
Compound `Cc1ccc(C(=O)C2=C(O)C(=O)N(c3ncc(S(C)(=O)=O)s3)C2c2ccc(C(C)C)cc2)cc1` (stereo not shown) has a melting point of 269 to 271 °C.
`Cc1ccc(C(=O)C2=C(O)C(=O)N(c3ncc(S(=O)(=O)c4ccc([N+](=O)[O-])cc4)s3)C2c2ccc(C(=O)N(C)C)cc2)cc1` (stereo not shown) (as salt: hydrochloride) gave a melting point of 205 °C.
For `CNC(=O)c1ccc(C2C(C(=O)c3ccc(C)cc3)=C(O)C(=O)N2c2ncc(S(=O)(=O)c3ccc([N+](=O)[O-])cc3)s2)cc1` (stereo not shown) (as salt: hydrochloride), the melting point was 195 to 197 °C.
`CNC(=O)c1cccc(C2C(C(=O)c3ccc(OC)cc3)=C(O)C(=O)N2c2nnc(C)s2)c1` (stereo not shown) (as salt: hydrochloride) showed a melting point of 238 °C.
`CON=C(C1=C(O)C(=O)N(c2ncc(S(=O)(=O)c3ccc([N+](=O)[O-])cc3)s2)C1c1ccc(C(C)C)cc1)c1ccc(C)cc1` (mixture of isomers) [Example 49, 3-hydroxy-5-(4-isopropyl-phenyl)-4-{[methoxyimino]-p-tolyl-methyl}-1-[5-(4-nitro-benzenesulfonyl)-thiazol-2-yl]-1,5-dihydro-pyrrol-2-one] showed a melting point of 156 °C.
For `COC(=O)c1ccc(C2C(C(=O)c3ccc(C)cc3)=C(O)C(=O)N2c2ncc(S(=O)(=O)c3ccc([N+](=O)[O-])cc3)s2)cc1` (stereo not shown) [Example 4, 4-{4-hydroxy-3-(4-methyl-benzoyl)-1-[5-(4-nitro-benzenesulfonyl)-thiazol-2-yl]-5-oxo-2,5-dihydro-1H-pyrrol-2-yl}-benzoic acid methyl ester], the melting point was 249 to 251 °C.
Work on `COc1ccc(C(=O)C2=C(O)C(=O)N(c3nncs3)C2c2ccc(C(C)(C)C)cc2)cc1` (stereo not shown) [Example 18, 5-(4-tert-butyl-phenyl)-3-hydroxy-4-(4-methoxy-benzoyl)-1-[1,3,4]thiadiazol-2-yl-1,5-dihydro-pyrrol-2-one] yielded a melting point of 289 to 291 °C.
